Source: patent publication US7368575B2, “6-alkylamino-2,2′-disubstituted-7,8-disubstituted-2H-1-benzopyran derivatives as 5-lipoxygenase inhibitor” (Korea Research Institute of Chemical Technology, priority 2004, dated 2008)
One block for each compound: values may come before it.

Key:
5-LO (5-lipoxygenase) = biological target: T1, 5-LO (5-lipoxygenase) (Homo sapiens, UniProt P09917); assay: 5-LO enzyme assay using a FOX reagent; format: biochemical; conditions: read-out: 5-LO (% inhibition at 1 μM); test sample 1 μM; lysates from 5-LO expressing insect cells; table does not say FOX or 234 nm readout
T1 construct: made in house; host or cells: insect cells (lysate, 7 μg)
T1 sequence (P09917 1-674): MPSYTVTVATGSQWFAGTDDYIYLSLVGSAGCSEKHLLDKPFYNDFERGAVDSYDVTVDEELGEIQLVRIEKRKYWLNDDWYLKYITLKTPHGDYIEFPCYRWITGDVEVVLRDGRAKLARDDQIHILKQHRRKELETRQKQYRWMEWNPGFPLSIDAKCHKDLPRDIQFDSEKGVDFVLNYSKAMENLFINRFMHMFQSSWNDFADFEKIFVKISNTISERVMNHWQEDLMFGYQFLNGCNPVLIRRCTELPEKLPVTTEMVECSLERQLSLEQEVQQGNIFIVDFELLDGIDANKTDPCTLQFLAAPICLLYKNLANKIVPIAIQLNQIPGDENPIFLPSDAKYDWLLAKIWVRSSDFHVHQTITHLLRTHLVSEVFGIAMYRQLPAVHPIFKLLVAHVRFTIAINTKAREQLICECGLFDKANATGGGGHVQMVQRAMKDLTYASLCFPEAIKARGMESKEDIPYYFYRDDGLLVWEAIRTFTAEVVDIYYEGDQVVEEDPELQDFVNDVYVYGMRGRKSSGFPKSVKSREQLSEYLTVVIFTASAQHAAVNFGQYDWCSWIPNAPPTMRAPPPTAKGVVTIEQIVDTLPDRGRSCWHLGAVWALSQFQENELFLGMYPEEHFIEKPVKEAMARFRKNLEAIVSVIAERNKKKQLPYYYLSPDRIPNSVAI
Experimental: Each test sample was added to lysates (7 μg) obtained from 5-LO expressing insect cells at a final concentration of 1 μM and reacted at room temperature for 3 min. Arachidonic acid as an enzyme substrate (40 μM) was added thereto and further reacted at room temperature for 4 min. Then, a FOX reagent (sulfuric acid 25 mM, xylenol orange 100 μM, FeSO4 100 μM; methanol: water=9:1) 100 μl was added thereto, and the absorbance of the reaction mixture was measured at 575 nm after 5 min.

[1] = system: arachidonic acid-induced ear inflammation (mouse ear edema model); assay: Mouse ear edema model (arachidonic acid-induced; ear thickness and MPO activity); format: in vivo; conditions: ICR mouse, oral, 1 hr before arachidonic acid treatment, versus arachidonic acid-only control
Experimental: The inside of the right ear of ICR mouse (6 week old) was treated with 2 mg of arachidonic acid dissolved in 20 μl of acetone for 1 hr to induce an inflammation.
After 1 hr, the difference between the right ear treated with arachidonic acid and the nontreated left ear was measured with a microgauge. Further, to measure the amount of neutrophil penetrated into a tissue as a primary marker for inflammation induction, the myeloperoxidase (MPO) activity was measured. In particular, the tissue obtained from the arachidonic acid-treated right ear was homogenized in 50 mM phosphate buffer solution (pH 6.0) supplemented with 0.5% hexadecyltrimethylammonium bromide (HTAB), subjected to centrifugation, and then, the MPO activity of the supernatant was measured.
To measure in vivo activity of each test compound, each compound was dissolved in 0.5% methylcellulose (10 mL/kg) and orally administered to the mice 1 hr before the arachidonic acid treatment. After the arachidonic acid was treated for 1 hr, the ear thickness and MPO activity were measured, and in vivo activity of the test compound was estimated by comparing them with those of a control which was treated with arachidonic acid only without the test compoud.

SMILES: COc1ccc(CNc2cc3c(cc2C)OC(C)(CCc2ccccc2)C=C3)cc1 (stereo not shown) [1-324]
inhibition at 1 µM (5-LO (5-lipoxygenase)): 51%

SMILES: CCCC1(C)C=Cc2cc(NCc3ccccc3)ccc2O1 (stereo not shown) [1-81]
inhibition at 1 µM (5-LO (5-lipoxygenase)): 61%

SMILES: CC(c1cc2ccccc2s1)N(O)C(N)=O (stereo not shown) [Zileuton, reference compound]
inhibition at 1 µM (5-LO (5-lipoxygenase)): 85% | Animal model (% inhibition) Thickness (T) % ([1]; ear thickness): 67% | Animal model (% inhibition) MPO % ([1]; myeloperoxidase activity of ear tissue): 38%

Second part, the compound after the results:

inhibition at 1 µM (5-LO (5-lipoxygenase)): 72%
SMILES: COc1ccc(CCC2(C)C=Cc3cc(NCc4ccccc4)ccc3O2)cc1 (stereo not shown) [1-161]

inhibition at 1 µM (5-LO (5-lipoxygenase)): 84%
SMILES: COc1ccc(CNc2ccc3c(c2)C=CC(C)(CCc2ccccc2)O3)cc1 (stereo not shown) [1-124]
